Assay results taken from patent US10279082B2, “Implant with an bioactive coating and method for providing the same” (Biomet Deutschland GmbH, priority 2015, dated 2019).

Assays:
[1] = Wiping test for adherence of the coating (glass substrate, polyester cloth); type: physicochemical; settings: fosfomycin-Ca about 430 μg/cm^2, rifampicin about 60 μg/cm^2, wiped with polyester cloth
Source text: A substrate, here a glass substrate, was coated at first with a fosfomycin-Ca monohydrate suspension. Subsequently, a part of the glass substrate coated with fosfomycin-Ca was partially coated with rifampicin.
The completely coated substrate was then wiped using a polyester cloth.

[2] = system: intracellular staphylococci; settings: local administration of a pharmaceutical composition comprising rifampin; cited from earlier work

| Structure (SMILES) | adherence of coating after wiping [1] | elimination of intracellular staphylococci [2] |
| --- | --- | --- |
| C[C@@H]1O[C@@H]1P(=O)([O-])[O-].O.[Ca+2] [fosfomycin-Ca, fosfomycin-calcium-monohydrate] | largely removed |  |
| CO[C@H]1/C=C/O[C@@]2(C)Oc3c(C)c(O)c4c(O)c(c(/C=N/N5CCN(C)CC5)c(O)c4c3C2=O)NC(=O)/C(C)=C\C=C\[C@H](C)[C@H](O)[C@@H](C)[C@@H](O)[C@@H](C)[C@H](OC(C)=O)[C@@H]1C [rifampin] |  | reduced within three days |
